One data set deals with Neuraminidase (Influenza B virus (strain B/Lee/1940), UniProt P03474). The data set can be described thus: Inhibition of influenza B virus sialidase activity.
A short description of data set [1]: t1/2, plasma elimination half life, the time taken for the plasma concentrations to fall by one half, once distribution is complete at a dose of 10 mg/kg. Set-up: dose 10 mg/kg. It counts as ADME, organism-based.
A short description of data set [2]: Clp, plasma clearance at a dose of 10 mg/kg. It counts as ADME, organism-based. More on the design: dose 10 mg/kg. The conditions noted are these: read-out: Clp.
Data set [3] concerns Mus musculus. The data set is described as follows: Compound was tested for in vivo efficacy in mouse model of influenza A virus A/Singapore/1/57 at dose of 10 mg/kg.(ip). Format: functional.
Data set [4] addresses Neuraminidase (Influenza A virus (A/Puerto Rico/8/1934(H1N1)), UniProt P03468). The data set can be described thus: Inhibition of influenza A virus sialidase activity.
For data set [5], the system named is Mus musculus. The data set is described as follows: Compound was tested for in vivo efficacy in mouse model of influenza A virus A/Singapore/1/57 at dose of 1 mg/kg. (in). Format: functional.
Data set [6] concerns Mus musculus. The data set can be described thus: Compound was tested for in vivo efficacy in mouse model of influenza A virus A/Singapore/1/57 at dose of 50 mg/kg.(ip). It counts as functional.
The nature of data set [7]: Vss, volume of distribution at steady state at a dose of 10 mg/kg. It counts as ADME, organism-based. More on the design: dose 10 mg/kg. The conditions noted are these: in vivo, read-out: Vss.

Sequence of Neuraminidase (P03474 whole entry): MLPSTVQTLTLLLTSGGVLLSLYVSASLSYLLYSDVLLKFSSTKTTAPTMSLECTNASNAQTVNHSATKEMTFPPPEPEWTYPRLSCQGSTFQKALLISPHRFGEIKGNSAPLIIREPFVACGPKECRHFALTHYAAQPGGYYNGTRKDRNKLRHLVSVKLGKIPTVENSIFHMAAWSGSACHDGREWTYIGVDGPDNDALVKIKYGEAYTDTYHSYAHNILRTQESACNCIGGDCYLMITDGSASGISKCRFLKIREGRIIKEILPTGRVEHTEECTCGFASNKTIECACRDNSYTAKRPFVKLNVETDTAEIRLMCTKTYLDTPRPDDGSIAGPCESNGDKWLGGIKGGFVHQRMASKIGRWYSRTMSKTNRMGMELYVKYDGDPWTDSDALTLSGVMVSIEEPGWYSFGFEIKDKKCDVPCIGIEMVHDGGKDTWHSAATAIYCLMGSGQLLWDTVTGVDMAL
Sequence of Neuraminidase (Influenza A virus (A/Puerto Rico/8/1934(H1N1)), UniProt P03468) (P03468 whole entry): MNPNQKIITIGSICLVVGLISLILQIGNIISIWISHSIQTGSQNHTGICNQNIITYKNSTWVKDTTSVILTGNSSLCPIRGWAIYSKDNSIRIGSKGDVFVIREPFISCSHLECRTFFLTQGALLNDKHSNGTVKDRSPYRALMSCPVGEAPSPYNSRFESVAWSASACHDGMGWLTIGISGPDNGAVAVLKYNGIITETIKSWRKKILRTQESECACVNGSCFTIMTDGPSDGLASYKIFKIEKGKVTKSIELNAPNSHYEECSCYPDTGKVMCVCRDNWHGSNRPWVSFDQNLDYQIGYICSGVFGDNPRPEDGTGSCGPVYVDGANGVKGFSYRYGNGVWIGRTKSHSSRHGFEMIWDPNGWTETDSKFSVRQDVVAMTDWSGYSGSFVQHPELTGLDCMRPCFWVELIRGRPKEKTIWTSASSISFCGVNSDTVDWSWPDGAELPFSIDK

One may read the IC50 as the point on the concentration scale where inhibition reaches its midpoint. The low end stands for greater potency in that assay, the high end for weaker potency in that assay. What is called half-life is the time needed for the level to fall by half in the phase considered. On to `CCCCCCCCCN(CCC)C(=O)[C@@H]1OC(C(=O)O)=C[C@H](N=C(N)N)[C@H]1NC(C)=O`, for which the IC50 against Neuraminidase is greater than 3000 nM; in data set [4], 7 nM. Further, the half-life in data set [1] is 55.2 min. Also, the clearance in data set [2] came out at 21.8 mL/min/kg. The “Reduction in virus titer” value was greater than 99.99% in the data set on Mus musculus [3], 72% in the data set with Mus musculus [5] and 50% with Mus musculus [6]. The Vd in data set [7] worked out at 1.2 L/kg.

Values taken from ChEMBL document CHEMBL1131488, “Dihydropyrancarboxamides related to zanamivir: a new series of inhibitors of influenza virus sialidases. 1. Discovery, synthesis, biological activity, and structure-activity relationships of 4-guanidino- and 4-amino-4H-pyran-6-carboxamides” (J Med Chem, 1998).
